Laboratory results as given in article PMC6934184, “Selective DNA-PKcs inhibition extends the therapeutic index of localized radiotherapy and chemotherapy” (The Journal of Clinical Investigation, 2019).

Tested on: Huh7
Assay: clonogenic survival with doxorubicin
Type: cell-based, human
Conditions: NU5455 1 μM, 24 hours

CN(C(=O)CN1CCOCC1)c1ccc2sc3c(-c4cccc5c(=O)cc(N6CC7CCC(C6)O7)oc45)cccc3c2c1 [NU5455]
Fold potentiation of doxorubicin (LD80, SER80): 3.5 fold
